Publication PMC11237399, “Synergistic effects of sulopenem in combination with cefuroxime or durlobactam against Mycobacterium abscessus” (mBio, 2024)

Key:
[1] = test system: T1, Mycobacteroides abscessus subsp. abscessus Mab 686; experiment: microbe, parasite or virus in culture; design: species or system Mycobacterium abscessus clinical isolates; broth microdilution MIC in Middlebrook 7H9 with OADC and Tween 80, 30 C, 3-7 days, visible growth; conditions: single agent, read-out: MIC50 (μg/ml) Alone
T1 construct: clinical isolate Mab686
Procedure: (§1) Minimum inhibitory concentrations (MICs) of sulopenem and CXM were determined using microdilution. Approximately 5 × 10^5 colony-forming units (CFU) per milliliter were inoculated into Middlebrook 7H9 broth supplemented with 10% (vol/vol) oleic albumin dextrose catalase (OADC) and 0.05% (vol/vol) Tween 80. When CXM is combined with sulopenem, the CXM is added at a fixed concentration of 4 µg/mL to serial dilutions of sulopenem. Isolates were incubated with test agents at 30°C for 3–7 days, and MIC was defined as the lowest antibiotic concentration that prevented visible bacterial growth. We use active moiety compounds, like cefuroxime salt, and not cefuroxime axetil. The 54 clinical isolates analyzed in this study were obtained from deidentified patients. To ensure consistency and reliability, we specifically selected isolates from our well-characterized whole genome-sequenced clinical isolates belonging to the Mycobacterium abscessus subspecies abscessus. Of these, 34 isolates were sourced from National Jewish Health, whereas 11 and 9 isolates were obtained from University Hospitals Cleveland Medical Center and Cleveland Metrohealth, respectively. Additionally, ATCC 19977 was acquired from the American Type Culture Collection (ATCC). The active ingredient cefuroxime (CXM) salts and avibactam (AVI) were purchased from AchemBlock, sulopenem was sourced from Iterum Therapeutics, and durlobactam (DUR) was provided from Entasis Therapeutics. All β-lactams and BLIs were prepared in sterile, distilled water or in broth and filter-sterilized with a 0.22 µm PES syringe filter.

[2] = test system: T2, Mycobacteroides abscessus subsp. abscessus Mab 122; experiment: microbe, parasite or virus in culture; design: species or system Mycobacterium abscessus clinical isolates; broth microdilution MIC in Middlebrook 7H9 with OADC and Tween 80, 30 C, 3-7 days, visible growth; conditions: single agent, read-out: MIC50 (μg/ml) Alone
T2 construct: clinical isolate Mab122
Procedure: as §1

PBP B = target: T3, PBP B (Mycobacteroides abscessus, UniProt B1MP31); experiment: intact-protein UPLC-ESI-MS (Q-TOF); assay type: binding; conditions: covalent; 1:20 enzyme:ligand, 50 mM Tris-HCl pH 7.5, 300 mM NaCl, room temperature
T3 construct: gene MAB_2000; truncated (delta 1-41), pET28a(+), E. coli BL2 (DE3), His tag cut by TEV
T3 sequence (B1MP31 42-642): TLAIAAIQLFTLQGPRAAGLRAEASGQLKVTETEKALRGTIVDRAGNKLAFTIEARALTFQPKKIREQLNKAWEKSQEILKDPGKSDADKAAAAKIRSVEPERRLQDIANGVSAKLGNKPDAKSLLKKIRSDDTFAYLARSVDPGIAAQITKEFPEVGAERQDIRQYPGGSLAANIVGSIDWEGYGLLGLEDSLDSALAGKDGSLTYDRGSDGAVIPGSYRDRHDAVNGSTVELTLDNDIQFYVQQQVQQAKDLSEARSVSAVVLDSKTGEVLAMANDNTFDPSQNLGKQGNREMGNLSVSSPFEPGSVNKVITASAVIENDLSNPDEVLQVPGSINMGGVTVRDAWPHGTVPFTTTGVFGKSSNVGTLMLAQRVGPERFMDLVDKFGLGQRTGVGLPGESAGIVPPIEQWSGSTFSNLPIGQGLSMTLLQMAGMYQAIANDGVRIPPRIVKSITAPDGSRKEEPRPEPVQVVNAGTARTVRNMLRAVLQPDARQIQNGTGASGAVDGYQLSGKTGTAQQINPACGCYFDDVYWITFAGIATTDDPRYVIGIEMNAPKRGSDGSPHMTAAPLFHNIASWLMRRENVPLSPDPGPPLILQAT

LdtMab2 = target: T4, LdtMab2 (Mycobacteroides abscessus, UniProt B1MMQ4); experiment: intact-protein UPLC-ESI-MS (Q-TOF); assay type: binding; conditions: covalent; 1:20 enzyme:ligand, 50 mM Tris-HCl pH 7.5, 300 mM NaCl, room temperature
T4 construct: gene MAB_1530; truncated (delta 1-41), pET28a(+), E. coli BL2 (DE3), His tag cut by TEV
T4 sequence (B1MMQ4 42-406): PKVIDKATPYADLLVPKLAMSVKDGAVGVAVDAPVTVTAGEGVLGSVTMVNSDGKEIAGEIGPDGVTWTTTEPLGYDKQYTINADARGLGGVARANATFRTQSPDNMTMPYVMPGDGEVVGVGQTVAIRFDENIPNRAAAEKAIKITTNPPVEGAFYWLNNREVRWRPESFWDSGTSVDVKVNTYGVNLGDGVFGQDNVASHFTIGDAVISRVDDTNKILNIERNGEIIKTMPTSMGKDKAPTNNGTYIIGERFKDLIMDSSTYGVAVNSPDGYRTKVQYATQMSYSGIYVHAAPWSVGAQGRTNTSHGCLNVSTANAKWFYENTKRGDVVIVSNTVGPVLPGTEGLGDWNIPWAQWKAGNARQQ

| Compound | MIC50 [1] [µg/mL] | MIC50 [2] [µg/mL] | intact-protein UPLC-ESI-MS (Q-TOF) (PBP B) | intact-protein UPLC-ESI-MS (Q-TOF) (LdtMab2) |
| --- | --- | --- | --- | --- |
| NC(=O)[C@@H]1CC[C@@H]2CN1C(=O)N2OS(=O)(=O)O [avibactam] | > 128 | > 128 | – | – |
| CO/N=C(\C(=O)N[C@@H]1C(=O)N2C(C(=O)O)=C(COC(N)=O)CS[C@H]12)c1ccco1 [cefuroxime] | 8 | 4 | CXM engaged solely with LdtMab2 and PBP B | CXM engaged solely with LdtMab2 and PBP B |
| C[C@@H](O)[C@H]1C(=O)N2C(C(=O)O)=C(S[C@H]3CC[S@@+]([O-])C3)S[C@H]12 [sulopenem] | 2 | 0.5 | – | – |
